Measurements published in patent US20240158446A1, “CYCLIC COMPOUND HAVING SELECTIVE INHIBITORY ACTION ON KRAS OVER HRAS AND NRAS” (CHUGAI SEIYAKU KABUSHIKI KAISHA, priority 2021, published 2024).
Where two headings read alike, the source gives them in different places. Where a SMILES comes first, the peptide text is derived from it. Bridges are numbered along the chain shown (N, C = ends). [ ]: non-standard residue; d: D form. The star is where a group is joined. hPhe(3-Cl-4-CF3) = N[C@@H](CCc1ccc(C(F)(F)F)c(Cl)c1)C(=O)O; NPrPhe(4-CF3) = CCCN[C@@H](Cc1ccc(C(F)(F)F)cc1)C(=O)O; NMeGly(cPent) = CN[C@H](C(=O)O)C1CCCC1; Hyp = O=C(O)[C@@H]1C[C@@H](O)CN1; NMeD = CN[C@@H](CC(=O)O)C(=O)O; NMeL = CN[C@@H](CC(C)C)C(=O)O; Ac6c = NC1(C(=O)O)CCCCC1; Morpholide = C1CN(*)CCO1; NMeA = CN[C@@H](C)C(=O)O; Piperidide = C1CCN(*)CC1; Ac5c = NC1(C(=O)O)CCCC1; Aze = O=C(O)[C@@H]1CCN1; Ac4c = NC1(C(=O)O)CCC1; Sar = CNCC(=O)O

Key:
[1] = target: GDP-bound HRAS wild-type protein (Homo sapiens, UniProt P01112); assay: Binding to HRAS by surface plasmon resonance (SPR), Single Cycle Kinetics; conditions: SPR, GDP-bound HRAS wild-type protein vs GDP-bound KRAS wild-type protein
Sequence of GDP-bound HRAS wild-type protein (P01112 whole entry): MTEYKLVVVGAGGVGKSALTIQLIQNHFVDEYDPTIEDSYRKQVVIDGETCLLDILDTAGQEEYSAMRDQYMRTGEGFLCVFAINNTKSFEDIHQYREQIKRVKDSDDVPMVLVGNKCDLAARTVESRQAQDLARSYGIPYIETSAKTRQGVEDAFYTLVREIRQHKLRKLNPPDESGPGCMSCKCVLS

[2] = target: GDP-bound KRAS wild-type protein (Homo sapiens, UniProt P01116); assay: Binding to KRAS by surface plasmon resonance (SPR), Single Cycle Kinetics; conditions: GDP-bound KRAS wild-type protein, read-out: KRAS KD
Sequence of GDP-bound KRAS wild-type protein (P01116 whole entry): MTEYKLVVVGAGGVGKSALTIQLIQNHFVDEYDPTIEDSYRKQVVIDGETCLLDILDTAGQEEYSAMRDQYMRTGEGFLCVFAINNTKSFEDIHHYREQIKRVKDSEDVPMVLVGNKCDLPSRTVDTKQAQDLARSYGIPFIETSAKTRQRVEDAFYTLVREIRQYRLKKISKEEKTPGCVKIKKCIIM

[3] = target: GDP-bound NRAS wild-type protein (Homo sapiens, UniProt P01111); assay: Binding to NRAS by surface plasmon resonance (SPR), Single Cycle Kinetics; conditions: SPR, GDP-bound NRAS wild-type protein vs GDP-bound KRAS wild-type protein
Sequence of GDP-bound NRAS wild-type protein (P01111 whole entry): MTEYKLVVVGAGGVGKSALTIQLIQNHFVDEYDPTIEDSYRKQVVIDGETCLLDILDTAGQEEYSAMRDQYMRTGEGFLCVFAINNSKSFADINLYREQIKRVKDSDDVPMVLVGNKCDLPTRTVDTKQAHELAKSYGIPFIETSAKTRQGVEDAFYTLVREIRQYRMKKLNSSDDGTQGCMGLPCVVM

[4] = SPR Single Cycle Kinetics, 1:1 binding model
[5] = SPR, Single Cycle Kinetics, 1:1 binding model

Structure (SMILES) | Kd [2, 4] | Kd ([2]; SPR, Single Cycle Kinetics) | HRAS/KRAS (ratio of KD value for HRAS to KD value for KRAS) [1] | NRAS/KRAS (ratio of KD value for NRAS to KD value for KRAS) [3] | further results
CCCN1C(=O)[C@@H]2CCN2C(=O)[C@H](C)N(C)C(=O)[C@H]([C@@H](C)CC)NC(=O)[C@H](CC(C)C)N(C)C(=O)C[C@@H](C(=O)N2CCCCC2)N(C)C(=O)[C@H](C2CCCC2)N(C)C(=O)C2(CCCC2)NC(=O)[C@@H]2CCCN2C(=O)[C@H](CCc2ccc(C(F)(F)F)c(Cl)c2)NC(=O)CN(C)C(=O)[C@@H]1Cc1ccc(C(F)(F)F)cc1 [PP0180] ([NMeL]I[NMeA][Aze][NPrPhe(4-CF3)][Sar][hPhe(3-Cl-4-CF3)]P[Ac5c][NMeGly(cPent)][NMeD]-Piperidide; lactam N-11) | 0.72 nM | – | C (A compound having a KD ratio of 0.1 or more and less than 3 is denoted as C) | C (A compound having a KD ratio of 0.1 or more and less than 3 is denoted as C) | –
CCO[C@@H]1C[C@H]2C(=O)NC3(CCC3)C(=O)N(C)[C@@H](C3CCCC3)C(=O)N(C)[C@H](C)CC(=O)N(C)[C@@H](CC3CC3)C(=O)N[C@@H]([C@@H](C)CC)C(=O)N(C)CC(=O)N(C)[C@H]3C/C=C\CCN(C3=O)[C@@H](Cc3ccc(F)cc3)C(=O)N(C)CC(=O)N[C@@H](CCc3cc(F)c(C(F)(F)F)c(F)c3)C(=O)N2C1 [PP1490] | – | – | – | – | HRAS/KRAS (ratio of KD value for HRAS to KD value for KRAS) ([1]; KD ratio class): B (a compound having 3 or more and less than 10 is denoted as B); Kd [2, 5]: 0.6 nM; NRAS/KRAS (ratio of KD value for NRAS to KD value for KRAS) ([3]; KD ratio class): B (a compound having 3 or more and less than 10 is denoted as B)
CCO[C@@H]1C[C@H]2C(=O)NC3(CCC3)C(=O)N(C)[C@@H](C3CCCC3)C(=O)N(C)[C@H](C(=O)N(C)CCOC)CC(=O)N(C)[C@@H](CC(C)C)C(=O)N[C@@H]([C@@H](C)CC)C(=O)N(C)CC(=O)N(C)[C@H]3C/C=C\CCN(C3=O)[C@@H](Cc3ccc(C(F)(F)F)cc3)C(=O)N(C)CC(=O)N[C@@H](CCc3ccc4sccc4c3)C(=O)N2C1 [PP1325] | – | – | – | – | HRAS/KRAS (ratio of KD value for HRAS to KD value for KRAS) ([1]; KD ratio class): A (a compound having 10 or more and less than 20 is denoted as A); Kd [2, 5]: 0.55 nM; NRAS/KRAS (ratio of KD value for NRAS to KD value for KRAS) ([3]; KD ratio class): A (a compound having 10 or more and less than 20 is denoted as A)
CCCN1C(=O)[C@@H]2CCN2C(=O)[C@H](C)N(C)C(=O)[C@H]([C@@H](C)CC)NC(=O)[C@H](CC(C)C)N(C)C(=O)C[C@@H](C(=O)N2CCOCC2)N(C)C(=O)[C@H](C2CCCC2)N(C)C(=O)C2(CCCCC2)NC(=O)[C@@H]2CCCN2C(=O)[C@H](CCc2ccc(C(F)(F)F)c(Cl)c2)NC(=O)CN(C)C(=O)[C@@H]1Cc1ccc(C(F)(F)F)cc1 [PP0226] ([NMeL]I[NMeA][Aze][NPrPhe(4-CF3)][Sar][hPhe(3-Cl-4-CF3)]P[Ac6c][NMeGly(cPent)][NMeD]-Morpholide; lactam N-11) | 0.47 nM | – | B (a compound having 3 or more and less than 10 is denoted as B) | C (A compound having a KD ratio of 0.1 or more and less than 3 is denoted as C) | –
CC[C@H](C)[C@@H]1NC(=O)[C@H](CC(C)C)N(C)C(=O)C[C@@H](C(=O)N2CCOCC2)N(C)C(=O)[C@H](C2CCCC2)N(C)C(=O)C2(CCCC2)NC(=O)[C@@H]2CCCN2C(=O)[C@H](CCc2ccc(C(F)(F)F)c(Cl)c2)NC(=O)CN(C)C(=O)[C@H](Cc2ccc(OC)cc2)N2CCCCC[C@@H](C2=O)N(C)C(=O)CN(C)C1=O [PP0614] | 1.1 nM | – | – | – | HRAS/KRAS (ratio of KD value with respect to HRAS to KD value with respect to KRAS) [1]: B (a compound having 3 or more and less than 10 is denoted as B); NRAS/KRAS (ratio of KD value with respect to NRAS to KD value with respect to KRAS) [3]: B (a compound having 3 or more and less than 10 is denoted as B)
CCO[C@@H]1C[C@H]2C(=O)N[C@]3(C)CCCCCC[C@@H](C(=O)N[C@@H]([C@@H](C)CC)C(=O)N(C)CC(=O)N(C)[C@H]4CCCCN(C4=O)[C@@H](Cc4ccc(C(F)(F)F)cc4)C(=O)N(C)CC(=O)N[C@@H](CCc4cc(F)c(C(F)(F)F)c(F)c4)C(=O)N2C1)N(C)C(=O)C[C@@H](C(=O)N1CCOCC1)N(C)C(=O)[C@H](C1CCCC1)N(C)C3=O [PP0992] | – | 4.6 nM | B (a compound having 3 or more and less than 10 is denoted as B) | B (a compound having 3 or more and less than 10 is denoted as B) | –
CCCN1C(=O)CN(C)C(=O)CN(C)C(=O)[C@H]([C@@H](C)CC)NC(=O)[C@H](CC(C)C)N(C)C(=O)C[C@@H](C(=O)N(C)C)N(C)C(=O)[C@H](C2CCCC2)N(C)C(=O)C2(CCC2)NC(=O)[C@@H]2C[C@@H](OCC)CN2C(=O)[C@H](CCc2ccc(C(F)(F)F)c(Cl)c2)NC(=O)CN(C)C(=O)[C@@H]1Cc1ccc(C(F)(F)F)cc1 [PP0416] ([NMeL]I[Sar][Sar][NPrPhe(4-CF3)][Sar][hPhe(3-Cl-4-CF3)][Hyp](Et)[Ac4c][NMeGly(cPent)][NMeD]-NMe2; lactam N-11) | 0.027 nM | – | – | – | HRAS/KRAS (ratio of KD value with respect to HRAS to KD value with respect to KRAS) [1]: C (A compound having a KD ratio of 0.1 or more and less than 3 is denoted as C); NRAS/KRAS (ratio of KD value with respect to NRAS to KD value with respect to KRAS) [3]: B (a compound having 3 or more and less than 10 is denoted as B)
CC[C@H](C)[C@@H]1NC(=O)[C@H](CC(C)C)N(C)C(=O)C[C@@H](C(=O)N2CCOCC2)N(C)C(=O)[C@H](C2CCCC2)N(C)C(=O)C2(CCCC2)NC(=O)[C@@H]2CCCN2C(=O)[C@H](CCc2ccc(C(F)(F)F)c(Cl)c2)NC(=O)CN(C)C(=O)[C@H](Cc2ccc(OC)cc2)N2CC=CC[C@@H](C2=O)N(C)C(=O)CN(C)C1=O [PP0535] | 0.5 nM | – | – | – | HRAS/KRAS (ratio of KD value with respect to HRAS to KD value with respect to KRAS) [1]: B (a compound having 3 or more and less than 10 is denoted as B); NRAS/KRAS (ratio of KD value with respect to NRAS to KD value with respect to KRAS) [3]: C (A compound having a KD ratio of 0.1 or more and less than 3 is denoted as C)
CCO[C@@H]1C[C@H]2C(=O)NC3(CC(C)(C)C3)C(=O)N(C)[C@@H](C3CCCC3)C(=O)N(C)[C@H](C(=O)N(C)CC)CC(=O)N(C)[C@@H](CC)C(=O)N[C@@H]([C@@H](C)CC)C(=O)N(C)CC(=O)N(C)[C@H]3C/C=C\CCN(C3=O)[C@@H](Cc3ccc(C(F)(F)F)cc3)C(=O)N(C)CC(=O)N[C@@H](CCc3cc(F)c(C(F)(F)F)c(F)c3)C(=O)N2C1 [PP1579] | – | – | – | – | HRAS/KRAS (ratio of KD value for HRAS to KD value for KRAS) ([1]; KD ratio class): B (a compound having 3 or more and less than 10 is denoted as B); Kd [2, 5]: 0.087 nM; NRAS/KRAS (ratio of KD value for NRAS to KD value for KRAS) ([3]; KD ratio class): A (a compound having 10 or more and less than 20 is denoted as A)
CCO[C@@H]1C[C@H]2C(=O)NC3(CCC3)C(=O)N(C)[C@@H](C3CCCC3)C(=O)N(C)[C@H](C(=O)N3CCOCC3)CC(=O)N(C)[C@@H](CC)C(=O)N[C@@H]([C@@H](C)CC)C(=O)N(C)CC(=O)N(C)[C@H]3CC/C=C(/C)CN(C3=O)[C@@H](Cc3ccc(C(F)(F)F)cc3)C(=O)N(C)CC(=O)N[C@@H](CCc3cc(F)c(C(F)(F)F)c(F)c3)C(=O)N2C1 [PP1335] | – | – | – | – | HRAS/KRAS (ratio of KD value for HRAS to KD value for KRAS) ([1]; KD ratio class): B (a compound having 3 or more and less than 10 is denoted as B); Kd [2, 5]: 18 nM; NRAS/KRAS (ratio of KD value for NRAS to KD value for KRAS) ([3]; KD ratio class): B (a compound having 3 or more and less than 10 is denoted as B)
C=CCC[C@H]1C(=O)N[C@@H]([C@@H](C)CC)C(=O)N(C)CC(=O)N(C)[C@H]2CCCCN(C2=O)[C@@H](Cc2ccc(C(F)(F)F)cc2)C(=O)N(C)CC(=O)N[C@@H](CCc2cc(F)c(C(F)(F)F)c(F)c2)C(=O)N2C[C@H](OCC)C[C@H]2C(=O)N[C@](C)(CC=C)C(=O)N(C)[C@@H](C2CCCC2)C(=O)N(C)[C@H](C(=O)N2CCOCC2)CC(=O)N1C [PP0875] | – | 0.096 nM | B (a compound having 3 or more and less than 10 is denoted as B) | C (A compound having a KD ratio of 0.1 or more and less than 3 is denoted as C) | –

Further lines, with some results ahead:

Kd [2, 4] | Kd ([2]; SPR, Single Cycle Kinetics) | Structure (SMILES) | HRAS/KRAS (ratio of KD value for HRAS to KD value for KRAS) [1] | NRAS/KRAS (ratio of KD value for NRAS to KD value for KRAS) [3] | further results
– | 0.56 nM | CCCO[C@@H]1C[C@H]2C(=O)NC3(CC(C)(C)C3)C(=O)N(C)[C@@H](C(CC)CC)C(=O)N(C)[C@H](C(=O)N(C)C)CC(=O)N(C)[C@H]3CCCc4ccc(cc4)C[C@@H](C(=O)N(C)CC(=O)N[C@@H](CCc4ccc(C(F)(F)F)c(OC)c4)C(=O)N2C1)N1CC/C=C\C[C@@H](C1=O)N(C)C(=O)CN(C)C(=O)[C@H]([C@@H](C)CC)NC3=O [PP3063] | B (a compound having 3 or more and less than 10 is denoted as B) | B (a compound having 3 or more and less than 10 is denoted as B) | –
– | 0.057 nM | CCO[C@@H]1C[C@H]2C(=O)NC3(CCC3)C(=O)N(C)[C@@H](C3CCCC3)C(=O)N(C)[C@H](C(=O)N(C)C)CC(=O)N(C)[C@@H](CC)C(=O)N[C@@H]([C@@H](C)CC)C(=O)N3CC[C@H]3C(=O)N(C)[C@H]3C[C@@H](C)CCN(C3=O)[C@@H](Cc3ccc(C(F)(F)F)cc3)C(=O)N(C)CC(=O)N[C@@H](CCc3cc(F)c(C(F)(F)F)c(F)c3)C(=O)N2C1 [PP1021] | B (a compound having 3 or more and less than 10 is denoted as B) | C (A compound having a KD ratio of 0.1 or more and less than 3 is denoted as C) | –
– | 0.29 nM | CCO[C@@H]1C[C@H]2C(=O)NC3(CC(C)(C)C3)C(=O)N(C)[C@@H](C(CC)CC)C(=O)N(C)[C@H](C(=O)N(C)C)CC(=O)N(C)[C@H]3CCCCC/C=C/c4ccc(cc4)C[C@@H](C(=O)N(C)CC(=O)N[C@@H](CCc4ccc(Cl)c(Cl)c4)C(=O)N2C1)N1CC/C=C\C[C@@H](C1=O)N(C)C(=O)CN(C)C(=O)[C@H]([C@@H](C)CC)NC3=O [PP3050] | A (a compound having 10 or more and less than 20 is denoted as A) | AA (a compound having 20 or more is denoted as AA) | –
